A word on the melting point: it is the temperature, or range, at which the solid turns liquid.

On to `CCCCNC(=O)C1CC(C)(C)NC(C)(C)C1=NO` (centres undefined), for which the melting point was 58 to 60 °C.
Then `CC(Cc1ccc(OCC(N)=O)cc1)NCC(O)c1ccccc1` (centres undefined), with 158 to 162 °C; and `COc1cc(C=O)c([N+](=O)[O-])cc1OCCCCCCOC(C)=O`, with 79.8 to 81.5 °C; and `CCc1ncc2n1N=C(c1ccc([N+](=O)[O-])cc1)c1cc3c(cc1C2)OCO3`, with 243 to 245 °C.
In the case of `CCCCCC#CCC(CC#CCCCCC)(C(=O)O)S(=O)(=O)c1ccc(OC)cc1`, the melting point was 61 °C.
In the case of `CNC(=O)NS(=O)(=O)c1cc(CCNC(=O)C=Cc2ccc(OC)cc2OC)ccc1OC`, the melting point came out at 210 °C.
Then `O=C(Cc1ccc(Cl)cc1)NCc1cccc2c1C(=O)N(C1CCC(=O)NC1=O)C2=O` (centres undefined), with 243 to 245 °C; and `O=C(O)Cc1cc(Br)c(S(=O)(=O)c2ccc(O)c(I)c2)c(Br)c1`, with 174 to 176 °C.
The compound `C=CCO/N=C(\C(=O)OC)c1csc(N)n1` displayed a melting point of 133 to 134 °C.
`CCOC(=O)C(C)Oc1ccc(Sc2ccc(C(F)(F)F)cc2[N+](=O)[O-])cc1` (centres undefined) returned a melting point of 63 to 64 °C.
Under `Cc1sc2cc(CC(=O)O)ccc2c1Br` stands 150 to 152 °C.
For `CCCCSc1nnc(-c2ccc([N+](=O)[O-])cc2)s1`, the melting point turned out to be 140 °C.
In turn, `COC(=O)c1nc(NC(C)=O)sc1-c1ccccc1` displayed a melting point of 224 to 226 °C.
Then `CCOC(=O)CCC(=O)N[C@@H](CC(C)C)C(=O)N[C@@H](C(C)C)[C@@H](O)c1c(-c2ccccc2)c1=O`, with 111 to 112 °C; and `COC(=O)c1cc(OC)c(OC)c([N+](=O)[O-])c1`, with 75 to 76 °C; and `COC(C)CNc1nccc(-c2ccnc(Nc3cccc(F)c3)c2)n1` (centres undefined), with 103 to 105 °C.
As to `COC(=O)c1c(OC(=O)N(c2ccccc2)c2ccccc2)cc(C(F)(F)F)nc1C(F)(F)F`, the melting point lay within 114 to 116 °C.
Then `CS(=O)c1ccc2nc(C(F)(F)F)nc(Cl)c2c1` (centres undefined), with 105 to 107 °C; and `O=C(O)COc1ccc(OC(F)(F)F)cc1C(=O)NCc1cccc([N+](=O)[O-])c1`, with 154 to 156 °C; and `COc1ccc([C@H]2CC[C@H](c3ccc(OC)c(OC)c3)O2)cc1OC` (relative stereo), with 114 to 115 °C.
Then `CC(C)Oc1ccc(C(CC(N)=O)N2C(=O)c3ccccc3C2=O)cc1OC(C)C` (centres undefined), with 153 to 154 °C.
Under `COc1cccc2c1CCN(C)C2CN1CCC(c2ccccc2)C1` (centres undefined) stands 152 to 153 °C.
`C=CC(=O)NCN1CCCC1=O`: the melting point lay in the range of 73 to 74 °C.
Then `COC1=Cc2cc(Cl)ccc2C(O)(C2CCN(C)CC2)c2ccsc21` (centres undefined), with 223 to 227 °C; and `COc1ccc2c(c1)C(C)(C)NC(=O)O2`, with 178 to 180 °C; and `C=CC[C@@H](N[S@](=O)C(C)(C)C)c1cc(F)cc(C#N)c1`, with 38 to 40 °C.
Then `CC(=C\c1ccccc1)/C=C(\C)C(=O)NCCCCCC(=O)NO`, with 120 to 122 °C.
Then `Cc1cc(Cl)cc2c1OCCCC2=O`, with 56 to 58 °C.
On to `CCCOc1ccccc1-c1nc2nc(N(C)C)ncc2c(=O)[nH]1`, for which the melting point was found to be 178 °C.
Under `CNc1cc(OC)c(C(=O)NCC23CCCN(CCC2)C3)cc1Cl` stands 188 to 190 °C; under `COc1ccc(CCN2CCC(NC(=O)c3ccccc3)CC2)cc1`, 178 °C; under `OCCOc1cccc(-c2n[nH]c3c2Cc2ccccc2-3)c1`, 203 to 205 °C.
Under `C[C@@H](Oc1ccc2c(c1)N(C)C(=O)N(c1ccc(Cl)cc1)S2(=O)=O)C(=O)O` stands 85 to 95 °C; under `COC(=O)c1cn(-c2ccc(O)cc2C)c(C2CCC(Br)C(Br)C2)cc1=O` (centres undefined), 197 to 200 °C.
Then `CC(C)(C)OC(=O)N1CCC(c2nc3cc(-c4ccc(-n5cnnn5)cc4F)ccc3o2)CC1`, with 203 to 207 °C; and `C=CCCCCCCCCC(O)CNC(=O)N(C)O` (centres undefined), with 105 to 106 °C; and `Cc1ccc(NC(=O)c2ccc3ncccc3c2)cc1NC(=O)c1cccc(OCCN2CCOCC2)c1`, with 216 to 217 °C.
For the compound `Cc1nnc2c(-c3cccnc3)cccn12`, the melting point was 112 to 115 °C.
Under `COc1ccc(CC(=O)NCCc2ccc3[nH]cc(CC#N)c3c2)cc1` stands 155 to 156 °C.
Then `CN1C(=N)C(=O)c2ccccc21`, with 99 to 102 °C; and `CS(=O)(=O)Nc1ccc(C(N)=O)cc1Sc1ccc(F)cc1F`, with 176 to 178 °C.
Under `Cc1cccc(C2(O)CCN(CC3CCc4ccccc4C3=O)CC2)c1` (centres undefined) stands 157 to 159 °C; under `CCNC(=O)C(C)Oc1ccc(N(C)c2nc3cc(Cl)ccc3o2)cc1` (centres undefined), 141 to 142 °C.
In turn, `O=C(O)c1ccc(CCCOCCCCCCBr)cc1` had a melting point of 70 to 71 °C.
Compound `CC(=O)NC1CCN(c2c(F)cc3c(=O)c(C(=O)O)cn4c3c2CCC4C)CC1` (centres undefined) returned a melting point of 274 to 277 °C.
Then `COCCCn1c(COc2ccccc2)nc2c(N)nc3ccccc3c21`, with 152 °C; and `O=C(O)Cc1ccc(OCc2c(Cl)cccc2C(=O)O)cc1`, with 171 to 173 °C.
Regarding `Cc1oc(-c2ccccc2)nc1CCc1ccc(/C=C/C=C/CO)cc1`, the melting point lay within 117 to 118 °C.
Under `CCOc1ccc2nc(CN3CCN(c4ccc(Cl)cc4Cl)CC3)cn2c1` stands 171 to 172 °C.
Under `COc1cccc(NC(=O)C(N)=O)c1C(N)=O` stands 252 to 255 °C; under `O=C(O)C(CC(=O)N1CC2CC=CCC2C1)Cc1ccccc1` (centres undefined), 128 to 132 °C; under `CC1(C)c2cccn2-c2cc(F)c(F)cc2N1S(=O)(=O)c1ccc(O)cc1`, 202 to 204 °C.
Under `CCCCn1c(=O)c2c(ncn2S(C)(=O)=O)n(CCCC)c1=O` stands 98 to 100 °C; under `COc1ccc(Cc2ncc[nH]2)cc1`, 158 to 160 °C.
`CC(=O)c1cccc(-c2ccc(Oc3ncccc3C(=O)O)cc2)c1` had a melting point of 188 °C.
Then `CCOC(=O)CNC(=O)Nc1ccc2oc3c(OC)ccc(C(=O)Nc4c(Cl)cncc4Cl)c3c2c1`, with greater than 250 °C; and `CCOC(=S)c1cnc(C)nc1NC(=O)Nc1ccccc1Cl`, with 172 to 173 °C.
Then `NC1=NC(Cl)N(c2c([N+](=O)[O-])cc([N+](=O)[O-])cc2C(F)(F)F)C(Cl)=C1` (centres undefined), with 198 to 200 °C; and `COC(=O)c1c(OCc2ccccc2)ccc2c1CC[C@H](NC(C)(C)C)[C@@H]2O` (relative stereo), with 104 to 105 °C; and `CCC(C)Oc1ccccc1-c1ncc(C(N)=O)c(=O)[nH]1` (centres undefined), with 183 to 185 °C.
In turn, `CCCCCCCCCCCCn1nnc(C(C(=O)Nc2cc(C)c(O)c(C)c2C)c2ccccc2)n1` (single isomer, unassigned; (+)) gave a melting point of 105 °C.
Then `N#Cc1ccc(OCC(O)CN2CCSCC2)cc1` (centres undefined), with 94 to 95 °C; and `COC(=O)c1cc(-c2ccc(OC)c(F)c2)nn(CC2CC2)c1=O`, with 114 to 117 °C; and `CCOC(=O)c1cc(CBr)cc(C(=O)OCC)c1`, with 111 to 113 °C.
